This is an account of results in patent US4366143A, “Assay for the free portion of substances in biological fluids” (Amersham International Public Limited Company, priority 1979, dated 1982).

The subject of test [1] is antiserum raised to a 21-hemisuccinate-cortisol conjugate to bovine serum albumin. To be noted: heterologous tracer-immunogen pair.
Test [2] addresses T1, transcortin (Homo sapiens, UniProt P08185).
T1 construct: charcoal extracted human serum; from tissue; host or cells: human serum, charcoal extracted (unpurified)
T1 sequence (P08185 23-405): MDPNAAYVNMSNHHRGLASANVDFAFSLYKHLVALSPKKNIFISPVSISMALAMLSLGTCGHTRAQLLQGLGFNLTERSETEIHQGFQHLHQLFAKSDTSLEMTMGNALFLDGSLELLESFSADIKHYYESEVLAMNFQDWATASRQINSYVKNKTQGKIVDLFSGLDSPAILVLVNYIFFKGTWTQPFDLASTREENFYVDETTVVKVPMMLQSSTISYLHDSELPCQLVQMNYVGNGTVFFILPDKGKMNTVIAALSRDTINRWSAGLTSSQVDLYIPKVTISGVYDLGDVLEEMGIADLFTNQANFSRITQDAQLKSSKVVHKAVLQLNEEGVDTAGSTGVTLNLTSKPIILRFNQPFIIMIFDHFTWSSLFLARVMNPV
As to the kind of experiment: Binding of cortisol tracers to serum proteins / transcortin with and without ANS (Example 4). To be noted: for % Tracer Bound to Serum Proteins (Corrected for Non-Specific Binding): charcoal extracted human serum. As for the experimental part: The protocol was as follows:
B. 200 μl buffer (containing either 0 or 600 μg of 8-anilinonaphthalene sulphonic acid (ANS) as a cortisol binding site blocking agent).
A mixture of A and B was incubated at 37° C. for one hour. […] The reaction tubes were mixed for one hour at room temperature. A 0.5 ml aliquot of the supernatant was then removed for counting.

Test [3] concerns rabbit anti-cortisol serum. As for the experimental part:
This experiment is designed to test the binding of cortisol-3-carboxymethyloxime-histamine-I^125 tracer with an antiserum raised to a cortisol-3-carboxymethyloxime-thyroglobulin conjugate. The protocol was as follows:
50 μl of serum was mixed with 200 μl of cortisol-3-carboxymethyloxime-histamine-I^125 tracer solution. The specific activity of the tracer was 3.9 curies per milligram. The tracer concentration was 125 picomolar. The buffer contained 28 g/l Na2 HPO4.12H2 O, 4.6 g/l citric acid monohydrate, 9 g/l NaCl, 3 g/l E.D.T.A. disodium salt, 0.5 g/l NaN3, 1 g/l gelatin and 1 g/l of 8-anilinonaphthalene sulphonic acid (the latter to inhibit binding of cortisol to transcortin and albumin).
To the mixture of tracer and serum, 200 μl of a suspension of polystyrene latex particles (0.9 micron diameter) coated with the rabbit anti-cortisol serum was added. The buffer was 28 g/l Na2 HPO4.12H2 O, 4.6 g/l citric acid monohydrate, 0.5 g/l NaN3 and 2 g/l bovine serum albumin. The effective antiserum dilution in the assay tube was 1/20000.
The resulting mixture was vortexed and incubated at 37° C. for 1 hour. The antibody coated particles were centrifuged down at 1500 g for 15 minutes and the liquid phase decanted off.

Where two headings read alike, the source gives them in different places.

As for “cortisol-3-carboxymethyloxime-histamine I^125”, in test [1], the “affinity of antiserum for tracer (in words)” value is given as “sufficient affinity”. The “binding to transcortin (in words)” value in test [2] was “binds very weakly to transcortin”. Moreover, the entries for the “% Tracer Bound to Serum Proteins (Corrected for Non-Specific Binding)” value in test [2] (ANS 0 μg/tube) and in test [2] (ANS 600 μg/tube) were 7% and 5%, respectively. The “displacement from transcortin by ANS blocking agent (in words)” value in test [2] (high concentrations of ANS) was “not significantly displaced by the ANS blocking agent”. In addition, the “% Radioactivity in the antibody Coated Particles” value worked out at 65.4% in test [3] (Total Plasma Cortisol 0 μg/dl); 56.6% in test [3] (Total Plasma Cortisol 1 μg/dl); 43.0% in test [3] (Total Plasma Cortisol 4 μg/dl); 30.6% in test [3] (Total Plasma Cortisol 10 μg/dl); 19.2% in test [3] (Total Plasma Cortisol 28 μg/dl); 12.2% in test [3] (Total Plasma Cortisol 60 μg/dl).
